Results from ChEMBL document CHEMBL1629662, “Antimicrobial activity of prulifloxacin tested against a worldwide collection of gastroenteritis-producing pathogens, including those causing traveler's diarrhea” (2009).

Key:
Vibrio parahaemolyticus = assay: Antibacterial activity against Vibrio parahaemolyticus by broth microdilution methods in presence of sulfamethoxazole
Vibrio alginolyticus = assay: Antibacterial activity against Vibrio alginolyticus by broth microdilution methods in presence of sulfamethoxazole
Vibrio fluvialis = assay: Antibacterial activity against Vibrio fluvialis by broth microdilution method in presence of sulfamethoxazole
Vibrio vulnificus = assay: Antibacterial activity against Vibrio vulnificus by broth microdilution method in presence of sulfamethoxazole
Vibrio sp. = assay: Antibacterial activity against Vibrio sp. by broth microdilution method in presence of sulfamethoxazole
Campylobacter jejuni = assay: Antibacterial activity against Campylobacter jejuni by broth microdilution method in presence of sulfamethoxazole
Campylobacter coli = assay: Antibacterial activity against Campylobacter coli by broth microdilution method in presence of sulfamethoxazole
Escherichia coli = assay: Antibacterial activity against Escherichia coli by broth microdilution methods in presence of sulfamethoxazolee
Salmonella typhimurium = assay: Antibacterial activity against Salmonella enterica serovar Typhimurium by broth microdilution method in presence of sulfamethoxazolee
Salmonella enteritidis = assay: Antibacterial activity against Salmonella enterica serovar Enteritidis by broth microdilution method in presence of sulfamethoxazolee
Salmonella typhi = assay: Antibacterial activity against Salmonella enterica serovar Typhi by broth microdilution method in presence of sulfamethoxazolee
Salmonella paratyphi = assay: Antibacterial activity against Salmonella enterica serovar Paratyphi by broth microdilution method in presence of sulfamethoxazolee
[1] = Antibacterial activity against Salmonella enterica serovar Newport by broth microdilution method in presence of sulfamethoxazole
[2] = Antibacterial activity against Salmonella enterica serovar Virchow by broth microdilution method in presence of sulfamethoxazole
[3] = Antibacterial activity against Salmonella enterica serovar Heidelberg by broth microdilution method in presence of sulfamethoxazole
Shigella sonnei = assay: Antibacterial activity against Shigella sonnei by broth microdilution method in presence of sulfamethoxazole
Shigella flexneri = assay: Antibacterial activity against Shigella flexneri by broth microdilution method in presence of sulfamethoxazole
Shigella boydii = assay: Antibacterial activity against Shigella boydii by broth microdilution methods in presence of sulfamethoxazole
Shigella dysenteriae = assay: Antibacterial activity against Shigella dysenteriae by broth microdilution methods in presence of sulfamethoxazole
Yersinia enterocolitica = assay: Antibacterial activity against Yersinia enterocolitica by broth microdilution methods in presence of sulfamethoxazole
[4] = system: Yersinia pseudotuberculosis; assay: Antibacterial activity against Yersinia pseudotuberculosis by broth microdilution methods in presence of sulfamethoxazole
Aeromonas hydrophila = assay: Antibacterial activity against Aeromonas hydrophila by broth microdilution methods in presence of sulfamethoxazole
Aeromonas caviae = assay: Antibacterial activity against Aeromonas caviae by broth microdilution methods in presence of sulfamethoxazole
Aeromonas sobria = assay: Antibacterial activity against Aeromonas sobria by broth microdilution methods in presence of sulfamethoxazole
Aeromonas veronii = assay: Antibacterial activity against Aeromonas veronii by broth microdilution methods in presence of sulfamethoxazole
Plesiomonas shigelloides = assay: Antibacterial activity against Plesiomonas shigelloides by broth microdilution method in presence of sulfamethoxazole
Vibrio cholerae = assay: microbe, parasite or virus in culture

COc1cc(Cc2cnc(N)nc2N)cc(OC)c1OC [TRIMETHOPRIM]
MIC50 (Vibrio parahaemolyticus): ≤ 0.5 µg/mL
MIC90 (Vibrio parahaemolyticus): ≤ 0.5 µg/mL
MIC50 (Vibrio alginolyticus): ≤ 0.5 µg/mL
MIC90 (Vibrio alginolyticus): ≤ 0.5 µg/mL
MIC50 (Vibrio fluvialis): ≤ 0.5 µg/mL
MIC90 (Vibrio fluvialis): ≤ 0.5 µg/mL
MIC50 (Vibrio vulnificus): ≤ 0.5 µg/mL
MIC90 (Vibrio vulnificus): ≤ 0.5 µg/mL
MIC50 (Vibrio sp.): ≤ 0.5 µg/mL
MIC90 (Vibrio sp.): ≤ 0.5 µg/mL
MIC50 (Campylobacter jejuni): 2 µg/mL
MIC90 (Campylobacter jejuni): 8 µg/mL
MIC50 (Campylobacter coli): 2 µg/mL
MIC90 (Campylobacter coli): 8 µg/mL
MIC50 (Escherichia coli): ≤ 0.5 µg/mL
MIC90 (Escherichia coli): > 64 µg/mL
MIC50 (Salmonella typhimurium): ≤ 0.5 µg/mL
MIC90 (Salmonella typhimurium): ≤ 0.5 µg/mL
MIC50 (Salmonella enteritidis): ≤ 0.5 µg/mL
MIC90 (Salmonella enteritidis): ≤ 0.5 µg/mL
MIC50 (Salmonella typhi): ≤ 0.5 µg/mL
MIC90 (Salmonella typhi): ≤ 0.5 µg/mL
MIC50 (Salmonella paratyphi): ≤ 0.5 µg/mL
MIC90 (Salmonella paratyphi): ≤ 0.5 µg/mL
MIC50 [1]: ≤ 0.5 µg/mL
MIC90 [1]: ≤ 0.5 µg/mL
MIC50 [2]: ≤ 0.5 µg/mL
MIC90 [2]: ≤ 0.5 µg/mL
MIC50 [3]: ≤ 0.5 µg/mL
MIC90 [3]: ≤ 0.5 µg/mL
MIC50 (Shigella sonnei): > 64 µg/mL
MIC90 (Shigella sonnei): > 64 µg/mL
MIC50 (Shigella flexneri): > 64 µg/mL
MIC90 (Shigella flexneri): > 64 µg/mL
MIC50 (Shigella boydii): > 64 µg/mL
MIC90 (Shigella boydii): > 64 µg/mL
MIC50 (Shigella dysenteriae): > 64 µg/mL
MIC90 (Shigella dysenteriae): > 64 µg/mL
MIC50 (Yersinia enterocolitica): ≤ 0.5 µg/mL
MIC50 [4]: ≤ 0.5 µg/mL
MIC50 (Aeromonas hydrophila): ≤ 0.5 µg/mL
MIC90 (Aeromonas hydrophila): 8 µg/mL
MIC50 (Aeromonas caviae): ≤ 0.5 µg/mL
MIC90 (Aeromonas caviae): 8 µg/mL
MIC50 (Aeromonas sobria): ≤ 0.5 µg/mL
MIC90 (Aeromonas sobria): 8 µg/mL
MIC50 (Aeromonas veronii): ≤ 0.5 µg/mL
MIC90 (Aeromonas veronii): 8 µg/mL
MIC (Plesiomonas shigelloides): ≤ 0.5 µg/mL
MIC50 (Plesiomonas shigelloides): ≤ 0.5 µg/mL
MIC50 (Vibrio cholerae): ≤ 0.5 µg/mL
MIC90 (Vibrio cholerae): ≤ 0.5 µg/mL
